This passage reports EC50 results from patent publication US20100160369A1, “S1P1 Agonists and Methods of Making And Using” (EXELIXIS, INC., priority 2008, published 2010).

What is called EC50 is the concentration at which the effect is half-maximal.

Structures can show the parent of a compound that is named as a salt. Where only a bound is given, the exact number is not on record here.

Holding throughout (assay type): cell-based
For assay [1], the target named is T1, S1P1 (Homo sapiens, UniProt P21453). Kind of assay: Tango β-arrestin Recruitment Assay in U2OS cells (Assay 2b). Conditions: Tango β-arrestin Recruitment Assay. Also noted: linker with TEV protease (N1a) cleavage site (C). An excerpt: (§1) For the Tango™ β-arrestin recruitment assay, the cytoplasmic C-terminus of S1P1 is tethered to the tTA transcriptional activator with a linker that contains a cleavage site for the N1a protease from tobacco etch virus (TEV protease). The C-terminus of the human β-arrestin2 protein is fused to TEV protease. Binding of an agonist recruits the β-arrestin-TEV fusion protein to the receptor resulting in cleavage of the linker and release of tTA to enter the nucleus and subsequently activate a tTA-dependent luciferase reporter gene.
Alternatively, U2OS cells expressing the reporter gene and S1P1 (Invitrogen) were added to the wells of a 384-well white opaque bottom assay plate (PerkinElmer) at […] per well. The cells were serum starved for 48 h in Freestyle medium (Invitrogen). Test compounds were tested at maximum concentrations of 1 μM for the agonist assay. Compounds were diluted in DMSO (10 concentration points, 3-fold each) and added to the assay plate at a 1% final DMSO concentration. The efficacy control was 1 μM S1P (Avanti). For each compound, there were duplicate assay plates and each assay plate had duplicate wells per concentration point. The plate was incubated overnight at 37° C. The GeneBLAzer β-lactamase assay reagent (Invitrogen) was added and the plates were incubated for an additional 2 h at room temperature. Fluorescence was measured using an EnVision plate reader (PerkinElmer, Waltham, Mass.) at an excitation wavelength of 409 nm and emission wavelengths of 460 nm and 530 nm. The emission intensity at each wavelength was background subtracted against wells containing medium only and the F460 nm/F530 nm ratio determined for each concentration of the test compounds. Percent activity was calculated as [(test compound ratio−DMSO ratio)/(positive control ratio−DMSO ratio)*100], where the positive control and DMSO ratios are from cells incubated with the efficacy control 1 μM S1P and 1% DMSO, respectively. The percent activities were plotted against compound concentration to determine EC50 using XLFit (IDBS).
(§2) Assay 1 is the CNG cAMP Assay as described in Biological Example 1. Assay 2a and 2b are the Tango™ β-arrestin Recruitment Assay in HEK293 and U2OS cells, respectively, as described in Biological Example 2. Assay 3a is the hS1P1R GTPγS Binding Assay as described in Biological Example 3. Assay 3b is the GTP-Eu Binding Assay as described in Biological Example 3. EC50's were measured unless otherwise noted. […] In the table, “nt” means the Compound was not tested and “no” means the compound was tested but had no measurable activity under the assay conditions employed.
For orientation: Activated receptors often draw arrestin, which recruitment assays turn into a signal.
Target sequence in this assay (P21453 whole entry, the tested form may be a part): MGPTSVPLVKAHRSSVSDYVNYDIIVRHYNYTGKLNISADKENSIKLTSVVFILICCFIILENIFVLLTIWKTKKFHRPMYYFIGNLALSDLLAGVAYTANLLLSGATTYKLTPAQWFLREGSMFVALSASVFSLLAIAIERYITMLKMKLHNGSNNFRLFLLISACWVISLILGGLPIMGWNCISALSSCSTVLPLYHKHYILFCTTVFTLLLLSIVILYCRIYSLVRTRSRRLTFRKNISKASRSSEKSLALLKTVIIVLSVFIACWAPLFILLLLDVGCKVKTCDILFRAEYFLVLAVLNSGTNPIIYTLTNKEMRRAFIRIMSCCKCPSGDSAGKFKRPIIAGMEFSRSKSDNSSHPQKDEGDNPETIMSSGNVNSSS
Target sequence in this assay (P32121 whole entry partner, the tested form may be a part): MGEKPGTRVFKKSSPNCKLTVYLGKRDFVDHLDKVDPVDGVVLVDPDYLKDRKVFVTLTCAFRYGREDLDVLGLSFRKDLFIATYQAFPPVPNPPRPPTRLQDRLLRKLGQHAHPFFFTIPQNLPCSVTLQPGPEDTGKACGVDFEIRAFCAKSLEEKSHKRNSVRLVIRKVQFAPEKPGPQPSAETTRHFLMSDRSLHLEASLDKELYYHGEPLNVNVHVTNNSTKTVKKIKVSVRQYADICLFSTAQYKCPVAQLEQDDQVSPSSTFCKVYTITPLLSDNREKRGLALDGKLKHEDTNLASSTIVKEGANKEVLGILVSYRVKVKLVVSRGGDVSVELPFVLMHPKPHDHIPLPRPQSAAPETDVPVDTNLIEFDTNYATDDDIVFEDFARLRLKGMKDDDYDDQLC

Assay [2] addresses T1, S1P1. Kind of assay: Tango β-arrestin Recruitment Assay in HEK293 cells (Assay 2a). Also noted: linker with TEV protease (N1a) cleavage site (C); host or cells: HEK293, transiently transfected. Conditions: Tango β-arrestin Recruitment Assay, read-out: Assay 2a EC50.
Text: as §1
Frozen HEK293 cells transiently transfected with receptor cDNAs for S1P1 (Invitrogen) were thawed and suspended in 10 mL of Pro293a-CDM culture medium (Invitrogen) supplemented with 4 mM L-Glutamine (Invitrogen), 1× Pen/Strep (100 units/mL penicillin and 100 μg/mL streptomycin, Invitrogen) and 0.1% fatty acid free BSA (Sigma-Aldrich). Cells were added to the wells of a 384-well white opaque bottom assay plate (PerkinElmer) at 3,000-6,000 cells per well and the plate was incubated for approximately 4 h in a 37° C. incubator. Test compounds were tested at maximum concentrations of 10 μM for the agonist assays. Compounds were diluted in DMSO (10 concentration points, 3-fold each) and added to the assay plate at a 1% final DMSO concentration. For each compound, there were duplicate assay plates and each assay plate had duplicate wells per concentration point. The plate was incubated at 37° C. for 30 min. The efficacy control was 5 μM S1P (Avanti). Following agonist addition, the assay plates were incubated in a 37° C. incubator for 16-18 h. Luciferase assay reagent was added and luminescence measured in an EnVision plate reader (PerkinElmer). To determine agonist activity, percent activity was calculated as [(test compound−background)/(positive control−background)* 100], where background is the luminescence of the DMSO alone control and the positive control is the luminescence from cells incubated with the efficacy control 5 μM S1P. The percent activities were plotted against compound concentration to determine EC50 using XLFit (IDBS).
as §2
Target sequence in this assay (P21453 whole entry, the tested form may be a part): as the sequence (P21453 whole entry, the tested form may be a part) above
Target sequence in this assay (P32121 whole entry partner, the tested form may be a part): as the sequence (P32121 whole entry partner, the tested form may be a part) above

Assay [3] concerns the target T1, S1P1. Kind of assay: CNG cAMP Assay (Assay 1). The arrangement: host or cells: HEK293 cells expressing the CNG channel. Particulars: read-out: Assay 1 EC50. The procedure, abridged:
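cAMP-gated CNG membrane-potential read-out (350/590 nm, T90/T0 ratio) in S1P1/CNG HEK293 cells after 90 min with compound plus NECA 500 nM, S1P 10 nM (EC95), Ro 20-1724 25 μM. Ten 3-fold points from 10 μM, 1.8% DMSO; percent activity vs NECA-only control gives EC50.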
Target sequence in this assay (P21453 whole entry, the tested form may be a part): as the sequence (P21453 whole entry, the tested form may be a part) above

[4] abbreviates: footnote 1: Relative EC50 was measured, read-out: Assay 2b relative EC50.

As to `OC(COc1cc(Cl)c(-c2noc(-c3cn4cc(C(F)(F)F)cc(Cl)c4n3)n2)cc1Cl)C(F)(F)F` (centres unmarked) [Entry 77], the EC50 in assay [1] (read-out: Assay 2b EC50) and in assay [2] was not above 100 nM in each case. On to `Oc1cc(Cl)c(-c2nnc(-c3cn4cc(C(F)(F)F)cc(Cl)c4n3)s2)cc1Cl` [Example 224, 2,5-dichloro-4-{5-[8-chloro-6-(trifluoromethyl)imidazo[1,2-a]pyridin-2-yl]-1,3,4-thiadiazol-2-yl}phenol], for which the results for the EC50 in assay [1] (read-out: Assay 2b EC50) and in assay [3] were 100 to 500 nM and not above 100 nM, respectively. Taken in the same sequence, the figures for `CC(CO)Oc1cc(Cl)c(-c2nc(-c3cn4cc(C(F)(F)F)cc(Cl)c4n3)no2)cc1Cl` (centres unmarked) [Example 227, 2-[(2,5-dichloro-4-{3-[8-chloro-6-(trifluoromethyl)imidazo[1,2-a]pyridin-2-yl]-1,2,4-oxadiazol-5-yl}phenyl)oxy]propan-1-ol] were not above 100 nM and not above 100 nM. For the molecule `OCC(O)COc1ccc(-c2nnc(-c3cn4cc(C(F)(F)F)cc(Cl)c4n3)s2)c(Cl)c1` (centres unmarked) [Example 245, 3-[(3-chloro-4-{5-[8-chloro-6-(trifluoromethyl)imidazo[1,2-a]pyridin-2-yl]-1,3,4-thiadiazol-2-yl}phenyl)oxy]propane-1,2-diol], the EC50 was 100 to 500 nM in assay [1] (read-out: Assay 2b EC50) and not above 100 nM in assay [3].

`CC(Oc1cc(Cl)c(-c2nnc(-c3cn4cc(C(F)(F)F)cc(Cl)c4n3)s2)cc1F)C(=O)O` (centres unmarked) [Example 250, 2-[(5-chloro-4-{5-[8-chloro-6-(trifluoromethyl)imidazo[1,2-a]pyridin-2-yl]-1,3,4-thiadiazol-2-yl}-2-fluorophenyl)oxy]propanoic acid]: the concentration giving a half-maximal response (EC50) was 100 to 500 nM in assay [1] (read-out: Assay 2b EC50) and not above 100 nM in assay [3]. Taken in the same sequence, the figures for `CC(CO)Oc1cc(Cl)c(-c2nnc(-c3cn4cc(C(F)(F)F)cc(Cl)c4n3)s2)cc1Cl` (centres unmarked) [Example 251, 2-[(2,5-dichloro-4-{5-[8-chloro-6-(trifluoromethyl)imidazo[1,2-a]pyridin-2-yl]-1,3,4-thiadiazol-2-yl}phenyl)oxy]propan-1-ol] were not above 100 nM and not above 100 nM. As to `C[C@H](COc1cc(Cl)c(-c2noc(-c3cn4cc(C(F)(F)F)cc(Cl)c4n3)n2)cc1Cl)OP(=O)(O)O` [Example 328, (1R)-2-[(2,5-dichloro-4-{5-[8-chloro-6-(trifluoromethyl)imidazo[1,2-a]pyridin-2-yl]-1,2,4-oxadiazol-3-yl}phenyl)oxy]-1-methylethyl dihydrogen phosphate], the EC50 in assay [1] (read-out: Assay 2b EC50) is not above 100 nM. On to `Cc1cc(CCC(=O)O)c(Cl)cc1-c1nc(-c2cn3cc(C(F)(F)F)cc(Cl)c3n2)no1` [Example 329, 3-(2-chloro-4-{3-[8-chloro-6-(trifluoromethyl)imidazo[1,2-a]pyridin-2-yl]-1,2,4-oxadiazol-5-yl}-5-methylphenyl)propanoic acid], for which the EC50 in assay [1] (read-out: Assay 2b EC50) is not above 100 nM.

On to `C[C@H](COc1cc(Cl)c(-c2noc(-c3cn4cc(C(F)(F)F)cc(Cl)c4n3)n2)cc1Cl)OS(=O)(=O)O` [Example 331, (1R)-2-[(2,5-dichloro-4-{5-[8-chloro-6-(trifluoromethyl)imidazo[1,2-a]pyridin-2-yl]-1,2,4-oxadiazol-3-yl}phenyl)oxy]-1-methylethyl hydrogen sulfate], for which the EC50 in assay [1] (read-out: Assay 2b EC50) is not above 100 nM. On to `CS(=O)(=O)NCc1ccc(-c2nnc(-c3cn4cc(C(F)(F)F)cc(Cl)c4n3)s2)c(Cl)c1` [Example 332, N-[(3-chloro-4-{5-[8-chloro-6-(trifluoromethyl)imidazo[1,2-a]pyridin-2-yl]-1,3,4-thiadiazol-2-yl}phenyl)methyl]methanesulfonamide], for which the EC50 in assay [1] (read-out: Assay 2b EC50) was not above 100 nM.

For `CS(=O)(=O)CCOc1cc(Cl)c(-c2noc(-c3cn4cc(C(F)(F)F)cc(Cl)c4n3)n2)cc1Cl` [Example 333, 8-chloro-2-[3-(2,5-dichloro-4-{[2-(methylsulfonyl)ethyl]oxy}phenyl)-1,2,4-oxadiazol-5-yl]-6-(trifluoromethyl)imidazo[1,2-a]pyridine], the half-maximal effective concentration (EC50) in assay [1] (setting [4]) lay within 100 to 500 nM.

As for `N[C@@H](CO)COc1cc(Cl)c(-c2nnc(-c3cn4cc(C(F)(F)F)cc(Cl)c4n3)s2)cc1F` [Example 335, (2S)-2-Amino-3-[(5-chloro-4-{5-[8-chloro-6-(trifluoromethyl)imidazo[1,2-a]pyridin-2-yl]-1,3,4-thiadiazol-2-yl}-2-fluorophenyl)oxy]propan-1-ol], the EC50 in assay [1] (read-out: Assay 2b EC50) was not above 100 nM. The same measure, in the same setting: under `NCC(O)COc1cc(Cl)c(-c2nnc(-c3cn4cc(C(F)(F)F)cc(Cl)c4n3)s2)cc1Cl` (centres unmarked) [Example 336, 1-amino-3-[(2,5-dichloro-4-{5-[8-chloro-6-(trifluoromethyl)imidazo[1,2-a]pyridin-2-yl]-1,3,4-thiadiazol-2-yl}phenyl)oxy]propan-2-ol] stands not above 100 nM.

For the molecule `Nc1cc(Cl)c(-c2noc(-c3cn4cc(C(F)(F)F)cc(Cl)c4n3)n2)cc1Cl` [Example 337, 2,5-dichloro-4-{5-[8-chloro-6-(trifluoromethyl)imidazo[1,2-a]pyridin-2-yl]-1,2,4-oxadiazol-3-yl}aniline], the concentration giving a half-maximal response (EC50) in assay [1] (read-out: Assay 2b EC50) lay within 100 to 500 nM. The same measure, in the same setting: under `Oc1cc(Cl)c(-c2nnc(-c3cn4cc(C(F)(F)F)cc(Cl)c4n3)s2)cc1F` [Example 338, 5-chloro-4-{5-[8-chloro-6-(trifluoromethyl)imidazo[1,2-a]pyridin-2-yl]-1,3,4-thiadiazol-2-yl}-2-fluorophenol] stands 100 to 500 nM; under `NC(CO)COc1cc(Cl)c(-c2nnc(-c3cn4cc(Br)ccc4n3)s2)cc1F` (centres unmarked) [Example 339, 2-amino-3-({4-[5-(6-bromoimidazo[1,2-a]pyridin-2-yl)-1,3,4-thiadiazol-2-yl]-5-chloro-2-fluorophenyl}oxy)propan-1-ol], not above 100 nM. Take `CC(N)COc1cc(Cl)c(-c2nnc(-c3cn4cc(C(F)(F)F)ccc4n3)s2)cc1Cl` (centres unmarked) [Example 340, 1-[(2,5-dichloro-4-{5-[6-(trifluoromethyl)imidazo[1,2-a]pyridin-2-yl]-1,3,4-thiadiazol-2-yl}phenyl)oxy]propan-2-amine]: the EC50 in assay [1] (setting [4]) was 5000 to 10000 nM. As for `COc1cc(Cl)c(-c2noc(-c3cn4cc(C(F)(F)F)cc(Cl)c4n3)n2)cc1Cl` [Example 341], in assay [1] (setting [4]), the EC50 was 500 to 1000 nM.

For the molecule `N[C@H](CO)COc1cc(Cl)c(-c2nnc(-c3cn4cc(C(F)(F)F)cc(Cl)c4n3)s2)cc1Cl` [Example 420, (2R)-2-amino-3-[(2,5-dichloro-4-{5-[8-chloro-6-(trifluoromethyl)imidazo[1,2-a]pyridin-2-yl]-1,3,4-thiadiazol-2-yl}phenyl)oxy]propan-1-ol], the EC50 in assay [1] (read-out: Assay 2b EC50) was in the range of 100 to 500 nM. The same measure, in the same setting: the result for `NC(CO)COc1cc(Cl)c(-c2nnc(-c3cn4ccc(C(F)(F)F)cc4n3)s2)cc1F` (centres unmarked) [Example 421, 2-amino-3-[(5-chloro-2-fluoro-4-{5-[7-(trifluoromethyl)imidazo[1,2-a]pyridin-2-yl]-1,3,4-thiadiazol-2-yl}phenyl)oxy]propan-1-ol] reads 100 to 500 nM.
